Key:
KRAS G12V = KRAS G12V (Homo sapiens, UniProt P01116, G12V); test: GDP-GTP exchange assay (KRAS G12V); format: biochemical; settings: bodipy-GDP/GppNHp exchange with SOS1; 3 h incubation after GppNHp-SOS1
Procedure: (§1) The inhibitor potency of the exemplified compounds was determined in a fluorescence based guanine nucleotide exchange assay, which measures the exchange of bodipy-GDP (fluorescently labeled GDP) for GppNHp (Non-hydrolyzable GTP analog) to generate the active state of KRAS in the presence of SOS1 (guanine nucleotide exchange factor). Inhibitors were serially diluted in DMSO and a volume of 0.1 μL was transferred to the wells of a black low volume 384-well plate. 5 μL/well volume of bodipy-loaded KRAS G12D diluted to 2.5 nM in assay buffer (25 mM Hepes pH 7.5, 50 mM NaCl, 10 mM MgCl2 and 0.01% Brij-35) was added to the plate and pre-incubated with inhibitor for 4 h at r.t. Appropriate controls (enzyme with no inhibitor or with a G12D inhibitor) were included on the plate. The exchange was initiated by the addition of a 5 μL/well volume containing 1 mM GppNHp and 300 nM SOS1 in assay buffer. The 10 μL/well reaction concentration of the bodipy-loaded KRAS G12D, GppNHp, and SOS1 were 2.5 nM, 500 μM, and 150 nM, respectively. The reaction plates were incubated at r.t. for 2 h, a time estimated for complete GDP-GTP exchange in the absence of inhibitor. For the KRAS G12V mutant, similar guanine nucleotide exchange assays were used with 2.5 nM as final concentration for the bodipy loaded KRAS proteins and 3 h incubation after adding GppNHp-SOS1 mixture. A cyclic peptide described to selectively bind G12D mutant (Sakamoto et al., BBRC 484.3 (2017), 605-611) or internal compounds with confirmed binding were used as positive controls in the assay plates. Fluorescence intensities were measured on a PheraStar plate reader instrument (BMG Labtech) with excitation at 485 nm and emission at 520 nm.
(§2) Either GraphPad prism or Genedata Screener SmartFit was used to analyze the data. The IC50 values were derived by fitting the data to a four parameter logistic equation producing a sigmoidal dose-response curve with a variable Hill coefficient.
(§3) The symbol “⬆” indicates IC50 100 nM, “⬆⬆” indicates IC50 >100 nM but ≤1 μM; and “⬆⬆⬆” indicates IC50 is >1 μM but ≤5 μM, “⬆⬆⬆⬆” indicates IC50 is >5 μM but ≤10 μM. “NA” indicates IC50 not available.

KRAS G12D = KRAS G12D (Homo sapiens, UniProt P01116, G12D); test: GDP-GTP exchange assay (KRAS G12D); format: biochemical; settings: bodipy-GDP/GppNHp exchange with SOS1; 4 h pre-incubation, 2 h reaction
Procedure: as §1, §2, §3
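Further: one dagger IC50 up to 100 nM and two daggers above 100 nM up to 1 μM.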

KRAS G12D, sequence (P01116 1-188 isoform P01116-2 G12D): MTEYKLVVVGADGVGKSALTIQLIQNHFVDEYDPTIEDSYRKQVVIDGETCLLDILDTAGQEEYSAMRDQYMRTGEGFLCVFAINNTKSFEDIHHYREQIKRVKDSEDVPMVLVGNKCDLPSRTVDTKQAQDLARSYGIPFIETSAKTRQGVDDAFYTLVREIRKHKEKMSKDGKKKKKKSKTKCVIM
KRAS G12V, sequence (P01116 1-188 isoform P01116-2 G12V): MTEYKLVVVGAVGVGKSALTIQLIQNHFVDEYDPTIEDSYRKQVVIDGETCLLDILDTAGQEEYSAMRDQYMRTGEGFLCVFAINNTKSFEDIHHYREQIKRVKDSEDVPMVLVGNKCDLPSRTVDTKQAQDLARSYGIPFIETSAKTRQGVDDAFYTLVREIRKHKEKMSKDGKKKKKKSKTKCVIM

SMILES | G12V_exchange (KRAS_G12V exchange assay IC50) (KRAS G12V) | G12D_exchange (KRAS_G12D exchange assay IC50) (KRAS G12D)
Cc1nc2c(F)c(-c3cccc(Cl)c3Cl)c(CCC#N)cc2c2c1cc([C@H]1[C@H]3C[C@H](CN(c4cccc(=O)n4C)C3)N1C(=O)C1CC1)n2[C@H]1[C@H]2CN[C@@H]1C2 (atropisomer, axis not shown; (Ra)) [Example 57, 3-((Ra)-1-((1R,4R,5S)-2-azabicyclo[2.1.1]hexan-5-yl)-2-((1S,5R,7R)-6-(cyclopropanecarbonyl)-3-(1-methyl-6-oxo-1,6-dihydropyridin-2-yl)-3,6-diazabicyclo[3.2.1]octan-7-yl)-7-(2,3-dichlorophenyl)-6-fluoro-4-methyl-1H-pyrrolo[3,2-c]quinolin-8-yl)propanenitrile] | † | ††
Cc1nc2c(F)c(-c3cccc(Cl)c3Cl)c(CCC#N)cc2c2c1cc([C@H]1[C@H]3C[C@H](CN(c4ccnc(C#N)c4)C3)N1C(=O)C1CC1)n2[C@H]1[C@H]2CN[C@@H]1C2 (atropisomer, axis not shown; (Ra)) [Example 63, 4-((1S,5R,7R)-7-((Ra)-1-((1R,4R,5S)-2-azabicyclo[2.1.1]hexan-5-yl)-8-(2-cyanoethyl)-7-(2,3-dichlorophenyl)-6-fluoro-4-methyl-1H-pyrrolo[3,2-c]quinolin-2-yl)-6-(cyclopropanecarbonyl)-3,6-diazabicyclo[3.2.1]octan-3-yl)picolinonitrile] | † | †
Cc1nc2c(F)c(-c3cccc(Cl)c3Cl)c(CCC#N)cc2c2c1cc([C@H]1[C@H]3C[C@H](CN(c4cc(C)n(C)c(=O)c4)C3)N1C(=O)C1CC1)n2[C@H]1[C@H]2CN[C@@H]1C2 (atropisomer, axis not shown; (Ra)) [Example 66, 3-((Ra)-1-((1R,4R,5S)-2-azabicyclo[2.1.1]hexan-5-yl)-2-((1S,5R,7R)-6-(cyclopropanecarbonyl)-3-(1,6-dimethyl-2-oxo-1,2-dihydropyridin-4-yl)-3,6-diazabicyclo[3.2.1]octan-7-yl)-7-(2,3-dichlorophenyl)-6-fluoro-4-methyl-1H-pyrrolo[3,2-c]quinolin-8-yl)propanenitrile] | † | †
Cc1c(F)ccnc1N1C[C@@H]2C[C@H](C1)N(C(=O)C1CC1)[C@H]2c1cc2c(C)nc3c(F)c(-c4cccc(Cl)c4Cl)c(CCC#N)cc3c2n1[C@H]1[C@H]2CN[C@@H]1C2 (atropisomer, axis not shown; (Ra)) [Example 75, 3-((Ra)-1-((1R,4R,5S)-2-azabicyclo[2.1.1]hexan-5-yl)-2-((1S,5R,7R)-6-(cyclopropanecarbonyl)-3-(4-fluoro-3-methylpyridin-2-yl)-3,6-diazabicyclo[3.2.1]octan-7-yl)-7-(2,3-dichlorophenyl)-6-fluoro-4-methyl-1H-pyrrolo[3,2-c]quinolin-8-yl)propanenitrile] | † | ††
COc1nccc(N2C[C@@H]3C[C@H](C2)N(C(=O)C2CC2)[C@H]3c2cc3c(C)nc4c(F)c(-c5cccc(Cl)c5Cl)c(CCC#N)cc4c3n2[C@H]2[C@H]3CN[C@@H]2C3)c1C (atropisomer, axis not shown; (Ra)) [Example 77, 3-((Ra)-1-((1R,4R,5S)-2-azabicyclo[2.1.1]hexan-5-yl)-2-((1S,5R,7R)-6-(cyclopropanecarbonyl)-3-(2-methoxy-3-methylpyridin-4-yl)-3,6-diazabicyclo[3.2.1]octan-7-yl)-7-(2,3-dichlorophenyl)-6-fluoro-4-methyl-1H-pyrrolo[3,2-c]quinolin-8-yl)propanenitrile] | † | ††
Cc1nc2c(F)c(-c3cccc(Cl)c3Cl)c(CCC#N)cc2c2c1cc([C@H]1[C@H]3C[C@H](CN(c4ncc(C(F)F)s4)C3)N1C(=O)C1CC1)n2[C@H]1[C@H]2CN[C@@H]1C2 (atropisomer, axis not shown; (Ra)) [Example 102, 3-((Ra)-1-((1R,4R,5S)-2-azabicyclo[2.1.1]hexan-5-yl)-2-((1S,5R,7R)-6-(cyclopropanecarbonyl)-3-(5-(difluoromethyl)thiazol-2-yl)-3,6-diazabicyclo[3.2.1]octan-7-yl)-7-(2,3-dichlorophenyl)-6-fluoro-4-methyl-1H-pyrrolo[3,2-c]quinolin-8-yl)propanenitrile] | † | †

The next lines start with the values.

G12V_exchange (KRAS_G12V exchange assay IC50) (KRAS G12V) | G12D_exchange (KRAS_G12D exchange assay IC50) (KRAS G12D) | SMILES
† | † | Cc1nc2c(F)c(-c3cccc(Cl)c3Cl)c(CCC#N)cc2c2c1cc([C@H]1[C@H]3C[C@H](CN(c4ccncc4)C3)N1C(=O)C1CC1)n2[C@H]1[C@H]2CN[C@@H]1C2 (atropisomer, axis not shown; (Ra)) [Example 37, 3-((Ra)-1-((1R,4R,5S)-2-azabicyclo[2.1.1]hexan-5-yl)-2-((1S,5R,7R)-6-(cyclopropanecarbonyl)-3-(pyridin-4-yl)-3,6-diazabicyclo[3.2.1]octan-7-yl)-7-(2,3-dichlorophenyl)-6-fluoro-4-methyl-1H-pyrrolo[3,2-c]quinolin-8-yl)propanenitrile]
† | † | Cc1nc2c(F)c(-c3cccc(Cl)c3Cl)c(CCC#N)cc2c2c1cc([C@H]1[C@H]3C[C@H](CN(c4ccnc(OCC5CC5)c4)C3)N1C(=O)C1CC1)n2[C@H]1[C@H]2CN[C@@H]1C2 (atropisomer, axis not shown; (Ra)) [Example 82, 3-((Ra)-1-((1R,4R,5S)-2-azabicyclo[2.1.1]hexan-5-yl)-2-((1S,5R,7R)-6-(cyclopropanecarbonyl)-3-(2-(cyclopropylmethoxy)pyridin-4-yl)-3,6-diazabicyclo[3.2.1]octan-7-yl)-7-(2,3-dichlorophenyl)-6-fluoro-4-methyl-1H-pyrrolo[3,2-c]quinolin-8-yl)propanenitrile]
† | † | Cc1nc2c(F)c(-c3cccc(Cl)c3Cl)c(CCC#N)cc2c2c1cc([C@H]1[C@H]3C[C@H](CN(c4ncc(C)n4C)C3)N1C(=O)C1CC1)n2[C@H]1[C@H]2CN[C@@H]1C2 (atropisomer, axis not shown; (Ra)) [Example 101, 3-((Ra)-1-((1R,4R,5S)-2-azabicyclo[2.1.1]hexan-5-yl)-2-((1S,5R,7R)-6-(cyclopropanecarbonyl)-3-(1,5-dimethyl-1H-imidazol-2-yl)-3,6-diazabicyclo[3.2.1]octan-7-yl)-7-(2,3-dichlorophenyl)-6-fluoro-4-methyl-1H-pyrrolo[3,2-c]quinolin-8-yl)propanenitrile]
† | † | Cc1nc2c(F)c(-c3cccc(Cl)c3Cl)c(CCC#N)cc2c2c1cc([C@H]1[C@H]3C[C@H](CN(C(=O)NCC(F)(F)F)C3)N1C(=O)C1CC1)n2[C@H]1[C@H]2CN[C@@H]1C2 (atropisomer, axis not shown; (Ra)) [Example 109, (1 S,5R,7R)-7-((Ra)-1-((1R,4R,5S)-2-Azabicyclo[2.1.1]hexan-5-yl)-8-(2-cyanoethyl)-7-(2,3-dichlorophenyl)-6-fluoro-4-methyl-1H-pyrrolo[3,2-c]quinolin-2-yl)-6-(cyclopropanecarbonyl)-N-(2,2,2-trifluoroethyl)-3,6-diazabicyclo[3.2.1]octane-3-carboxamide]
† | † | Cc1nc2c(F)c(-c3cccc(Cl)c3Cl)c(CCC#N)cc2c2c1cc(C1C3CC(CN(C4CCCCC4)C3)N1C(=O)C1CC1)n2C1C2CNC1C2 (atropisomer, axis not shown; (Ra)) [Example 114, 3-((Ra)-1-((1R,4R,5S)-2-Azabicyclo[2.1.1]hexan-5-yl)-2-((1R,5R,7R)-3-cyclohexyl-6-(cyclopropanecarbonyl)-3,6-diazabicyclo[3.2.1]octan-7-yl)-7-(2,3-dichlorophenyl)-6-fluoro-4-methyl-1H-pyrrolo[3,2-c]quinolin-8-yl)propanenitrile]

From patent publication US20250195536A1, “BICYCLOOCTANE KRAS INHIBITORS” (Incyte Corporation, priority 2023, published 2025)
